Literature values, collected in US8314084B2, “Device and methods for sequential, regional delivery of multiple cytotoxic agents and directed assembly of wound repair tissues” (priority 2002, dated 2012).

Details: given intravenously to dogs

## N.N.[Cl][Pt][Cl] [cisplatin, Cis-diamminedichloroplatinum H]
  usual maximum dose-limiting schedule: 70 mg/m^2
